Assay [1] concerns the target T1, human B1R receptor (hB1R) (Homo sapiens, UniProt P46663).
T1 construct: expressed in transfected cells; host or cells: CHO K1 cells
T1 sequence (P46663 1-353): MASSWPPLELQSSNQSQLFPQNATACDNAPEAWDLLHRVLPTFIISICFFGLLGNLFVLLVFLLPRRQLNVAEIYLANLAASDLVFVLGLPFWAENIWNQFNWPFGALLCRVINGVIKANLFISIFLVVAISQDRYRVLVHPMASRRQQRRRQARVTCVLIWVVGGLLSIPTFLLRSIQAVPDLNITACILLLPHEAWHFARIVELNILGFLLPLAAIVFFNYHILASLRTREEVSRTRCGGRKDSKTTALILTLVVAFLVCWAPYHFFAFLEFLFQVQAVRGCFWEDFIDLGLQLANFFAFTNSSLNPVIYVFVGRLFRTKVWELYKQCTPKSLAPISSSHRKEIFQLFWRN
The experiment in a line: Functional investigation on the bradykinin receptor 1 (B1R), FLIPR Ca2+ assay, hB1R cells. Type of assay: cell-based. How it is done:
(§1) The agonistic or antagonistic action of substances can be quantified on the bradykinin receptor 1 (B1R) of the human and rat species with ectopically expressing cell lines (CHO K1 cells) and with the aid of a Ca^2+-sensitive dyestuff (Fluo-4) in a fluorescent imaging plate reader (FLIPR). The figure in % activation is based on the Ca^2+ signal after addition of Lys-Des-Arg^9-bradykinin (0.5 nM) or Des-Arg^9-bradykinin (100 nM). Antagonists lead to a suppression of the Ca^2+ inflow after addition of the agonist. % inhibition compared with the maximum achievable inhibition is stated.
(§2) The agonistic or antagonistic action of substances can be determined on the bradykinin receptor 1 (B1R) of the human and rat species with the following assay. In accordance with this assay, the Ca^2+ inflow through the channel is quantified with the aid of a Ca^2+-sensitive dyestuff (type Fluo-4, Molecular Probes Europe BV, Leiden Holland) in a fluorescent imaging plate reader (FLIPR, Molecular Devices, Sunnyvale, USA).
(§3) Chinese hamster ovary cells (CHO K1 cells) transfected stably with the human B1R gene (hB1R cells) or the B1R gene of the rat (rB1R cells) are used. For functional studies, these cells are plated out on black 96-well plates with a clear base (BD Biosciences, Heidelberg, Germany or Greiner, Frickenhausen, Germany) in a density of 20,000-35,000 cells/well. The cells are left overnight at 37° C. and 5% CO2 in culture medium (hB1R cells: Nutrient Mixture Ham's F12, Gibco Invitrogen GmbH, Karlsruhe, Germany or DMEM, Sigma-Aldrich, Taufkirchen, Germany; rB1R cells: D-MEM/F12, Gibco Invitrogen GmbH, Karlsruhe, Germany) with 10 vol. % FBS (foetal bovine serum, Gibco Invitrogen GmbH, Karlsruhe, Germany or PAN Biotech GmbH, Aidenbach, Germany). On the following day, the cells are loaded for 60 min at 37° C. with 2.13 μM Fluo-4 (Molecular Probes Europe BV, Leiden Holland) in HBSS buffer (Hank's buffered saline solution, Gibco Invitrogen GmbH, Karlsruhe, Germany) with 2.5 mM probenecid (Sigma-Aldrich, Taufkirchen, Germany) and 10 mM HEPES (Sigma-Aldrich, Taufkirchen, Germany). The plates are then washed 2× with HBSS buffer, and HBSS buffer which additionally contains 0.1% BSA (bovine serum albumin; Sigma-Aldrich, Taufkirchen, Germany), 5.6 mM glucose and 0.05% gelatine (Merck KGaA, Darmstadt, Germany) is added. After a further incubation of 20 minutes at room temperature, the plates are inserted into the FLIPR for the Ca^2+ measurement.
(§4) Alternatively, the plates are washed with buffer A (15 mM HEPES, 80 mM NaCl, 5 mM KCl, 1.2 mM CaCl2, 0.7 mM MgSO4, 2 g/l glucose, 2.5 mM probenecid), buffer A is added and the plates are loaded with 2.5 μM Fluo-4 and 0.025% Pluronic F127 (Sigma-Aldrich, Taufkirchen, Germany). Thereafter, the cells are washed 2× with buffer A and incubated for 30 minutes at room temperature with buffer A, which additionally contains 0.05% BSA and 0.05% gelatine, and thereafter inserted into the FLIPR for the Ca^2+ measurement.
(§5) The Ca^2+-dependent fluorescence is measured here before and after addition of substances (λex=488 nm, λem=540 nm). Quantification is by measurement of the highest fluorescence intensity (FC, fluorescence counts) over time.
(§6) The FLIPR protocol consists of 2 additions of substance. Test substances (10 μM) are first pipetted on to the cells and the Ca^2+ inflow is compared with the control (hB1R: Lys-Des-Arg^9-bradykinin>=50 nM; rB1R: Des-Arg^9-bradykinin 10 μM). This gives the result in % activation based on the Ca^2+ signal after addition of Lys-Des-Arg^9-bradykinin (>=50 nM) or Des-Arg^9-bradykinin (10 μM). After incubation for 10-20 minutes, Lys-Des-Arg^9-bradykinin (hB1R) or Des-Arg^9-bradykinin (rB1R) in the concentration of the EC80 is applied and the inflow of Ca^2+ is likewise determined. Antagonists lead to a suppression of the Ca^2+ inflow. % inhibition compared with the maximum achievable inhibition is calculated.
(§7) In order to determine the IC50 value, the substances are added in various concentrations. […]

Assay [2] addresses T2, B1R receptor of the rat (rB1R) (Rattus norvegicus, UniProt P97583).
T2 construct: expressed in transfected cells; host or cells: CHO K1 cells
T2 sequence (P97583 1-337): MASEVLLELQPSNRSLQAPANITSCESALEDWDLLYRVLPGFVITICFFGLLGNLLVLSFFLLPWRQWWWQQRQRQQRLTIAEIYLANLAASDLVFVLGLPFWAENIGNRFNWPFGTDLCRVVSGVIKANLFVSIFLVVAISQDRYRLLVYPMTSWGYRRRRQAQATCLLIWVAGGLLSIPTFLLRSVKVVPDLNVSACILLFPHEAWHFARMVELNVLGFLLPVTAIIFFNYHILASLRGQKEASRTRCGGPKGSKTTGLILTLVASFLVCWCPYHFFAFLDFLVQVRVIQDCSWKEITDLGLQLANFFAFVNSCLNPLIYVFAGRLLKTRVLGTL
Nature of the assay: Functional investigation on the bradykinin receptor 1 (B1R), FLIPR Ca2+ assay, rB1R cells. It is filed as cell-based. How it is done:
as §1, §2, §3, §4, §5, §6, §7

SMILES strings stand for the structures.

In general, inhibition refers to the relative decrease from the control value, in per cent.

Turning to `COc1cc(C)c(S(=O)(=O)N2CCCC2c2nc3cccc(C(=O)N4CCC5(CC4)CCN(c4ccncc4)CC5)c3[nH]2)c(C)c1` (stereo not shown) [I_19, [2-[1-[(4-methoxy-2,6-dimethyl-phenyl)sulfonyl]-pyrrolidin-2-yl]-3H-benzoimidazol-4-yl]-(9-pyridin-4-yl-3,9-diazaspiro[5.5]undecan-3-yl)-methanone], the inhibition at 10 µM in assay [1] came out at 100%; in assay [2] it was 76%.
Taken in the same sequence, the figures for `COc1cc(C)c(S(=O)(=O)N(C)C(C)c2nc3cccc(C(=O)N4CCC5(CC4)CCN(c4ccncc4)CC5)c3[nH]2)c(C)c1` (stereo not shown) [I_06, 4-methoxy-N,2,6-trimethyl-N-[1-[7-(9-pyridin-4-yl-3,9-diazaspiro[5.5]undecane-3-carbonyl)-1H-benzoimidazol-2-yl]-ethyl]-benzenesulfonic acid amide] were 94% and 90%.
For `COc1cc(C)c(S(=O)(=O)N(C)Cc2nc3ccc(C(=O)N4CCC5(CC4)CCN(c4ccncc4)CC5)cc3[nH]2)c(C)c1` [I_22, 4-methoxy-N,2,6-trimethyl-N-[[6-(9-pyridin-4-yl-3,9-diazaspiro[5.5]undecane-3-carbonyl)-1H-benzoimidazol-2-yl]-methyl]-benzenesulfonic acid amide] the same measures were 100% and 103%.
For `COc1cc(C)c(S(=O)(=O)N(C)c2nc3c(C(=O)N4CCC5(CC4)CCN(c4ccncc4)C5)cccc3s2)c(C)c1` [I_CC-21, 4-methoxy-N,2,6-trimethyl-N-[4-(3-pyridin-4-yl-3,8-diazaspiro[4.5]decane-8-carbonyl)-benzothiazol-2-yl]-benzenesulfonic acid amide] the same measures were 36% and 65%.
On to `COc1cc(C)c(S(=O)(=O)N(C)Cc2nc3cccc(C(=O)N4CCC5(CCC(Oc6ccncc6)CC5)CC4)c3[nH]2)c(C)c1` [I_03, 4-methoxy-N,2,6-trimethyl-N-[[7-(9-pyridin-4-yloxy-3-azaspiro[5.5]undecane-3-carbonyl)-1H-benzoimidazol-2-yl]-methyl]-benzenesulfonic acid amide], for which the inhibition at 10 µM turned out to be 99% in assay [1] and 86% in assay [2].
Taken in the same sequence, the figures for `CN(Cc1nc2cccc(C(=O)N3CCC4(CC3)CCN(c3ccncc3)C4)c2[nH]1)C(=O)c1sccc1Cl` [I_CC-09, 3-chloro-N-methyl-N-[[7-(3-pyridin-4-yl-3,8-diazaspiro[4.5]decane-8-carbonyl)-1H-benzoimidazol-2-yl]-methyl]-thiophene-2-carboxylic acid amide] were 15% and 58%.
For `COc1cc(C)c(S(=O)(=O)N(C)C(C)c2nc3cccc(C(=O)N4CCC5(CC4)CCN(C(=O)C4CC4)CC5)c3[nH]2)c(C)c1` (stereo not shown) [I_CC-50, N-[1-[7-[9-(Cyclopropanecarbonyl)-3,9-diazaspiro[5.5]undecane-3-carbonyl]-1H-benzoimidazol-2-yl]-ethyl]-4-methoxy-N,2,6-trimethyl-benzenesulfonic acid amide] the same measures were 62% and 88%.
For `CN(Cc1nc2cccc(C(=O)N3CCC4(CC3)CCN(c3ccncc3)CC4)c2[nH]1)C(=O)c1ccccc1Cl` [I_CC-04, 2-chloro-N-methyl-N-[[7-(3-pyridin-4-yl-3,9-diazaspiro[5.5]undecane-9-carbonyl)-1H-benzoimidazol-2-yl]-methyl]-benzamide], the results for the inhibition at 10 µM in assay [1] and in assay [2] were 65% and 102%, respectively.
Taken in the same sequence, the figures for `CN(Cc1nc2cccc(C(=O)N3CCC4(CC3)CCN(c3ccncc3)C4)c2[nH]1)C(=O)c1ccccc1Cl` [I_CC-08, 2-chloro-N-methyl-N-[[7-(3-pyridin-4-yl-3,8-diazaspiro[4.5]decane-8-carbonyl)-1H-benzoimidazol-2-yl]-methyl]-benzamide] were 26% and 64%.
`COc1cc(C)c(S(=O)(=O)N(C)Cc2nc3c(C(=O)N4CCC5(CC4)CCN(c4ccncc4)C5)cccc3s2)c(C)c1` [I_CC-20, 4-methoxy-N,2,6-trimethyl-N-[[4-(3-pyridin-4-yl-3,8-diazaspiro[4.5]decane-8-carbonyl)-benzothiazol-2-yl]-methyl]-benzenesulfonic acid amide]: the inhibition at 10 µM in assay [1] turned out to be 93%; in assay [2], 100%.
Taken in the same sequence, the figures for `COc1cc(C)c(S(=O)(=O)N(C)C(C)c2nc3cccc(C(=O)N4CCC5(CC4)CCN(S(=O)(=O)c4ccc(F)c(C#N)c4)CC5)c3[nH]2)c(C)c1` (stereo not shown) [I_CC-58, N-[1-[7-[9-[(3-Cyano-4-fluoro-phenyl)sulfonyl]-3,9-diazaspiro[5.5]undecane-3-carbonyl]-1H-benzoimidazol-2-yl]-ethyl]-4-methoxy-N,2,6-trimethyl-benzenesulfonic acid amide] were 18% and 101%.
Taken in the same sequence, the figures for `COc1cc(C)c(S(=O)(=O)N(C)C(C)c2nc3cccc(C(=O)N4CCC5(CC4)CCN(S(=O)(=O)c4ccccc4C#N)CC5)c3[nH]2)c(C)c1` (stereo not shown) [I_CC-59, N-[1-[7-[9-[(2-Cyano-phenyl)sulfonyl]-3,9-diazaspiro[5.5]undecane-3-carbonyl]-1H-benzoimidazol-2-yl]-ethyl]-4-methoxy-N,2,6-trimethyl-benzenesulfonic acid amide] were 20% and 103%.
For `CN(Cc1nc2cccc(C(=O)N3CCC4(CC3)CCN(c3ccncc3)CC4)c2[nH]1)C(=O)c1ccc(Cl)s1` [I_16, 5-chloro-N-methyl-N-[[7-(9-pyridin-4-yl-3,9-diazaspiro[5.5]undecane-3-carbonyl)-1H-benzoimidazol-2-yl]-methyl]-thiophene-2-carboxylic acid amide] the same measures were 91% and 105%.
Regarding `COc1cc(C)c(S(=O)(=O)N(C)C(C)c2nc3cccc(C(=O)N4CCC5(CCN(Cc6cnn(C)c6C)CC5)CC4)c3[nH]2)c(C)c1` (stereo not shown) [I_CC-41, N-[1-[7-[9-[(1,5-Dimethyl-1H-pyrazol-4-yl)-methyl]-3,9-diazaspiro[5.5]undecane-3-carbonyl]-1H-benzoimidazol-2-yl]-ethyl]-4-methoxy-N,2,6-trimethyl-benzenesulfonic acid amide], the inhibition at 10 µM in assay [1] amounted to 83%; in assay [2], 98%.
